From patent publication US20260217677A1, “ORGANIC COMPOUNDS AS NLRP3 INHIBITORS” (KODIAK SCIENCES, INC., priority 2023, published 2026)

system: IL-1β release in U937 cells after NLRP3 activation; assay: IL-1β release inhibition in U937 cells (MSD V-Plex); conditions: Homo sapiens, U-937, read-out: IL-1β IC50, Table 3; PMA-differentiated U937 cells, 1 μg/mL LPS 3 h, compound 30 min, 10 mM nigericin 1 h

| IC50 | Compound |
| --- | --- |
| < 5 nM | O=C(CN1CCC[C@@H](Nc2nnc(-c3ccc(C(F)(F)F)cc3O)c3c2COC3)C1)N1CCC(O)CC1 [Compound 23, (R)-2-(3-((4-(2-Hydroxy-4-(trifluoromethyl)phenyl)-5,7-dihydrofuro[3,4-d]pyridazin-1-yl)amino)piperidin-1-yl)-1-(4-hydroxypiperidin-1-yl)ethan-1-one] |
| 5 to 50 nM | O=C(CN1CCC[C@@H](Nc2nnc(-c3ccc(C(F)(F)F)cc3O)c3c2COC3)C1)N1CCC2(CC1)CC(O)C2 [Compound 24, (R)-2-(3-((4-(2-Hydroxy-4-(trifluoromethyl)phenyl)-5,7-dihydrofuro[3,4-d]pyridazin-1-yl)amino)piperidin-1-yl)-1-(2-hydroxy-7-azaspiro[3.5]nonan-7-yl)ethan-1-one] |
| 5 to 50 nM | O=C(CN1CCC[C@@H](Nc2nnc(-c3ccc(C(F)(F)F)cc3O)c3c2COC3)C1)N1CC2(CCC(O)CC2)C1 [Compound 25, (R)-2-(3-((4-(2-Hydroxy-4-(trifluoromethyl)phenyl)-5,7-dihydrofuro[3,4-d]pyridazin-1-yl)amino)piperidin-1-yl)-1-(7-hydroxy-2-azaspiro[3.5]nonan-2-yl)ethan-1-one] |
| 5 to 50 nM | O=C(CN1CCC[C@@H](Nc2nnc(-c3ccc(C(F)(F)F)cc3O)c3c2COC3)C1)N1CC[C@H](O)C1 [Compound 26, 2-((R)-3-((4-(2-Hydroxy-4-(trifluoromethyl)phenyl)-5,7-dihydrofuro[3,4-d]pyridazin-1-yl)amino)piperidin-1-yl)-1-((S)-3-hydroxypyrrolidin-1-yl)ethan-1-one] |
| 5 to 50 nM | O=C(CN1CCC[C@@H](Nc2nnc(-c3ccc(C(F)(F)F)cc3O)c3c2COC3)C1)N1CC[C@@H](O)C1 [Example 27, 2-((R)-3-((4-(2-hydroxy-4-(trifluoromethyl)phenyl)-5,7-dihydrofuro[3,4-d]pyridazin-1-yl)amino)piperidin-1-yl)-1-((R)-3-hydroxypyrrolidin-1-yl) ethan-1-one] |
| 5 to 50 nM | O=C(CN1CCC[C@@H](Nc2nnc(-c3ccc(C(F)(F)F)cc3O)c3c2COC3)C1)N1C[C@H](O)[C@@H](F)C1 [Example 28, 1-((3S,4S)-3-Fluoro-4-hydroxypyrrolidin-1-yl)-2-((R)-3-((4-(2-hydroxy-4-(trifluoromethyl)phenyl)-5,7-dihydrofuro[3,4-d]pyridazin-1-yl)amino)piperidin-1-yl)ethan-1-one] |
| 5 to 50 nM | O=C(CN1CCC[C@@H](Nc2nnc(-c3ccc(C(F)(F)F)cc3O)c3c2COC3)C1)N1C[C@@H](O)[C@H](F)C1 [Example 29, 1-((3R,4R)-3-Fluoro-4-hydroxypyrrolidin-1-yl)-2-((R)-3-((4-(2-hydroxy-4-(trifluoromethyl)phenyl)-5,7-dihydrofuro[3,4-d]pyridazin-1-yl)amino)piperidin-1-yl)ethan-1-one] |
| 5 to 50 nM | Cc1c(N[C@@H]2CCCN(CC(=O)N3CCC(O)CC3)C2)nnc(-c2ccc(C(F)(F)F)cc2O)c1C [Example 30, (R)-2-(3-((6-(2-Hydroxy-4-(trifluoromethyl)phenyl)-4,5-dimethylpyridazin-3-yl)amino)piperidin-1-yl)-1-(4-hydroxypiperidin-1-yl)ethan-1-one] |
| 50 to 500 nM | Cc1cc(-c2ccc(C(F)(F)F)cc2O)nnc1N[C@@H]1CCCN(CC(=O)N2CC[C@H](O)C2)C1 [Example 31, 2-((R)-3-((6-(2-Hydroxy-4-(trifluoromethyl)phenyl)-4-methylpyridazin-3-yl)amino)piperidin-1-yl)-1-((S)-3-hydroxypyrrolidin-1-yl)ethan-1-one] |
| 5 to 50 nM | Cc1cc(-c2ccc(C(F)(F)F)cc2O)nnc1N[C@@H]1CCCN(CC(=O)N2CC[C@@H](O)C2)C1 [Example 32, 2-((R)-3-((6-(2-Hydroxy-4-(trifluoromethyl)phenyl)-4-methylpyridazin-3-yl)amino)piperidin-1-yl)-1-((R)-3-hydroxypyrrolidin-1-yl)ethan-1-one] |
